As a reminder, the melting point is the temperature, or range, at which the solid turns liquid.

A value given as a limit tells only on which side of the number the result lay.

Compound `C=CCOc1ccc(OC(C)=O)c2ccc(=O)[nH]c12` returned a melting point of 142 to 143 °C. In turn, `CCOC(=O)c1cn(C2CC2)c2c(CO)c(N3CCN(C)CC3)c(F)cc2c1=O` gave a melting point of 216 to 218 °C.

Turning to `COc1cc2c(c3c1OC(C)(C)C3)C(c1cccc(NC(=O)C(C)(C)CCl)c1)=NC(C)(C)C2`, the melting point fell in the range of 189 to 191 °C.

The compound `CCN(CC)CC1CCCCN1CC(=O)N1c2ccccc2C(=O)Nc2ccc(Cl)nc21` (stereo not drawn) returned a melting point of 191 to 192 °C. In turn, `CC(=O)c1cc(C)cc(C)c1NC(=O)c1sccc1S(=O)(=O)Nc1onc(C)c1C` displayed a melting point of 158 to 160 °C. Take `CC(O)CN(CC(C)O)C(=O)c1ccc(C(=O)N2CCN(c3ncccc3NC(C)C)CC2)cc1` (stereo not drawn): the melting point is 73 to 75 °C. `CC(c1ccc(Br)cc1)N(O)C(=O)NCCO` (stereo not drawn) registered a melting point of 117 to 119 °C. Next, `CCC(Oc1cccc([N+](=O)[O-])c1Cl)C1=NCCN1` (stereo not drawn): 100 to 103 °C; `NC(=O)C1(N)CCCCC1`: 99 to 102 °C.

Regarding `COC(C(=O)O)c1ccsc1` (stereo not drawn), the melting point was 80 to 82 °C.

In turn, `CCCCCCCCCCCCCCCCCCOc1ccc(C(C)=O)cc1` gave a melting point of 69 to 70 °C. The same measure for `O=c1[nH]c2cc(Cl)c(Cl)cc2n2ccnc12`: > 300 °C.

`COc1cc2c(=O)c(S(=O)(=O)N(C)C)cn(C)c2cc1C`: the melting point fell in the range of 232 to 233 °C. For `Cc1cc(O)c(Oc2ccccc2C#N)cc1-n1cccc1`, the melting point is 158 to 160 °C. `COc1cc(Nc2c(C#N)cnc3cc(C#CCN4CCN(C)CC4)sc23)cc(OC)c1OC` showed a melting point of 180 to 182 °C. `CC(C)C(=O)N[C@@H](CSC(=O)C(C)C)C(=O)NCCSC(=O)C(C)C` returned a melting point of 94 to 96 °C.

As for `CNC1Oc2cc(Cl)cc(-c3ccccc3F)c2O1` (stereo not drawn), the melting point is > 250 °C. Next, `O=C1NCC(c2ccc(Cl)cc2)C1c1ccccc1` (stereo not drawn): 130 to 135 °C; `CCCc1c(OCC(O)CSc2ccc(C(=O)CCC(=O)O)cc2)ccc(C(C)=O)c1O` (stereo not drawn): 115 to 116 °C. Turning to `COc1cc2c(cc1OC)CN(CCCOc1ccc(NC(=O)c3cccc4c(=O)c5cccc(OC)c5[nH]c34)c(C)c1)CC2`, the melting point was 160 °C. The compound `C[C@@H](S[C@H]1CO[C@H](c2ccc(C(=O)Nc3nccs3)cc2)OC1)[C@](O)(Cn1cncn1)c1ccc(F)cc1F` returned a melting point of 108 °C. Next, `c1ccc(-c2cccc(-n3cnc4cc(-n5cccc5)ccc43)c2)nc1`: 147 to 148 °C; `Nc1cccc(C(CC2CCCC2)C(=O)Nc2nccs2)c1` (stereo not drawn): 158 to 160 °C. The compound `CC(Cl)(Cl)C(NC(=O)c1cc(Cl)cc(Cl)c1)NC(=NC#N)Nc1ccc(Cl)nc1` (stereo not drawn) had a melting point of 138 to 140 °C. The same measure for `CCCCCCCCCCCC(=O)NC(CCCCNN=C=S)C(=O)O` (stereo not drawn): 37 to 39 °C; for `COc1ccc(/C(=C/c2ccncc2)c2ccco2)cc1OC1CCCC1`: 122 to 123 °C; for `Cc1cc(C)n2nc(-c3ccccc3)c(CC(=O)N(C)C)c2n1`: 171 to 172 °C.

`Cc1nnc2n1-c1ccccc1C(c1ccc(Cl)cc1)=NC2NC(=O)Nc1ccccn1` (stereo not drawn): the melting point lay in the range of 274 to 278 °C.

Turning to `COC(c1ccccc1)C(C)O` (stereo not drawn), the melting point fell in the range of 104 to 106 °C. The same measure for `OCCCN1CCN(C2=Nc3ccccc3Nc3ccsc32)CC1`: 172 to 173 °C; for `O=C1C=CC(=O)N1c1ccc([N+](=O)[O-])cc1`: 163 to 165 °C. Next, `NC(=O)c1ccc(-c2ccc3[nH]c(=O)ccc3c2)cc1`: > 320 °C. The same measure for `O=C(c1ccccc1)c1cc(Cl)cc(I)c1O`: 110 to 111 °C; for `CCOC(=O)c1cc(-n2c(OCC)nc(C(F)(F)F)cc2=O)c(F)cc1Cl`: 94 to 96 °C.

Consider `C=CCCCc1cnc(-c2ccc(F)cc2)nc1`, for which the melting point stood at 21.8 °C. With `NS(=O)(=O)c1ccc(-n2cccc2-c2ccc(F)cc2)cc1`, the melting point is 198 to 199 °C. In turn, `CC(C(N)=O)C1CC(c2ccc(N3CCSCC3)c(F)c2)=NO1` (stereo not drawn) yielded a melting point of 188 to 189 °C. Next, `COC(OC)C(C)(O)c1cnc(C=O)s1` (stereo not drawn): 98 to 99 °C.

Regarding `COc1ccc(S(=O)(=O)Nc2ccccc2NC(=O)c2ccc(F)cc2Cl)cc1`, the melting point lay within 160 to 162 °C. The same measure for `COC1CCN(Cc2ccc(C#CC(=O)Nc3ccc(-c4ccc(Cl)cc4)cc3)cc2)CC1`: 145 to 146 °C; for `COCCO[C@@H]1c2ccc3c(nc(C)n3C3CC3)c2O[C@H](c2ccccc2)[C@H]1O`: 183 °C; for `NC(=O)NC[C@@H]1CCCc2cc(Sc3cccc(F)c3)cc(F)c21`: 131 to 132 °C.

In the case of `CCCCOc1ccc(-c2nc(-c3ccc(Sc4ccccc4)cc3)nc(-c3ccc(OCCCC)cc3O)n2)c(O)c1`, the melting point is > 250 °C. With `CCOC(=O)CC(=O)Nc1ccc(S)cc1`, the melting point was 69 °C. Regarding `NC(=O)c1cccnc1Nc1cccc([N+](=O)[O-])c1`, the melting point was 240 to 241 °C. The compound `CCCc1nn(-c2ccc(C(F)(F)F)cn2)cc1CCCOc1ccc(CCC(=O)O)cc1OC` registered a melting point of 126 to 127 °C. The compound `O=C(O)c1ccccc1-c1ccc(CNc2nc(Cl)nc3ccc(Cl)cc23)cc1` returned a melting point of 210 to 240 °C. `Fc1ccccc1-c1cn([C@H]2CN3CCC2CC3)nn1` returned a melting point of 94 °C. Turning to `Cc1cc(C)c2c(-c3cccc(Cl)c3)cc(=O)n(C)c2n1`, the melting point fell in the range of 161 to 162 °C.

Regarding `CCOC(=O)c1ccc(CCCC2NC(=O)CS2)cc1` (stereo not drawn), the melting point lay in the range of 99 to 100 °C.

Compound `CN(C(=O)N1Cc2nc(C(O)c3ccccc3)n(Cc3ccccc3)c2CC1CO)c1ccccc1` (stereo not drawn) had a melting point of 107 to 120 °C. The same measure for `CNC(=O)Nc1ccc(CCN2CCC(Nc3nc4ccccc4n3Cc3ccc(F)cc3)CC2)cc1`: 300 °C. `N#Cc1cc(-c2cc(C(F)F)c3c(-c4cccnc4)n[nH]c3n2)ccc1N` returned a melting point of 296 °C. The same measure for `COc1cc(COc2nn(Cc3ccccc3)cc2C(C)O)ccc1OCc1nc(-c2ccco2)oc1C` (stereo not drawn): 105 to 106 °C. `CC(C)(C)c1ccc(C(=O)Nc2cn3nc(N)ccc3n2)cc1`: the melting point is 267 to 268 °C. Turning to `O=C(c1ccccc1)N(CCCCn1ccnc1)C1=Nc2cccc3cccc1c23`, the melting point is 139 to 140 °C. The same measure for `Cc1cccc(CCOc2ccc(CC3SC(=O)NC3=O)cc2)n1` (stereo not drawn): 156 to 157 °C; for `CCc1nc2c(c(=O)n(C)c(=O)n2-c2ccc(Cl)cc2Cl)n1Cc1ccc(OC)cc1`: 209 to 210 °C; for `COc1cc(-c2cc(N)n(C)c3nc(N)nc(=O)c2-3)cc(OC)c1OC`: > 300 °C. The same measure for `CC(/C=C/c1c(C)sc(C)c1C)=C(F)\C=C\C(C)=C\C(=O)O`: 217 to 223 °C; for `Cc1sc(-c2ccc(Br)cc2)nc1O`: 206 to 207 °C; for `Cc1ccc(-c2nnc(N3CCN(c4ccc(O)cc4)CC3)c3ccccc23)cc1`: 265 to 266 °C. Next, `CCC(C(CC(=O)OC)c1ccc2c(c1)OCO2)[N+](=O)[O-]` (stereo not drawn): 185 to 189 °C; `Cc1ccccc1CCCc1c(C(C)C)nc(C(C)C)c(CO)c1-c1ccc(F)cc1`: 65 to 70 °C. `CCCCc1nc(C(C)O)c(C(=O)O)n1Cc1ccc(-c2ccccc2-c2nnn[nH]2)cc1` (stereo not drawn) came in with a melting point of 214 to 217 °C. The same measure for `CC1Cc2c(n(-c3ccc(Cl)c(Cl)c3)c3ncccc3c2=O)O1` (stereo not drawn): 218 to 220 °C. Next, `CCCCCCCCCCCCCCCCCCOc1cc(OCCCOc2cccc(Br)c2)cc(N(CC(=O)OC)CC(=O)OC)c1`: 48 to 50 °C; `COc1c(N)cc(C2(C)CC2)cc1NS(C)(=O)=O`: 144 to 146 °C; `Cc1cc(C)c(/C=C/[C@H]2C[C@H](O)CC(=O)O2)c(-c2ccc(F)c(CO)c2)c1` (relative stereo): 137 to 138 °C. In turn, `O=C(c1ccc(OCCN2CCCCC2)cc1)c1c(-c2ccc(O)cc2)sc2ccccc12` showed a melting point of 100 to 103 °C. Compound `CCCCCOc1ccc(C2SC(=O)NC2=O)cc1OCC` (stereo not drawn) came in with a melting point of 104 to 106 °C. As to `CCCNC(=O)[C@@H](C)NC(=O)OCc1ccccc1`, the melting point lay in the range of 116 to 120 °C. `Cn1ncc(C(=O)N2CCOCC2)c1C(=O)Nc1ccn2nc(-c3cccnc3)nc2c1` registered a melting point of 218 to 220 °C. The same measure for `CCOC(=O)c1ccc(-c2cnc3c(c2)N(Cc2c(F)ccc(F)c2Cl)C(=O)CN3)cc1`: 180 to 182 °C. The compound `O=C(NC1=NN(c2ccc(Cl)cc2)C(c2ccc(Cl)cc2)C1)C(F)(F)F` (stereo not drawn) came in with a melting point of 138 to 140 °C. As to `CON=C(C)Cc1sc2ccc(Cl)cc2c1Cl`, the melting point is 65 to 68 °C. Next, `CCNC(=O)c1ccc(N2CCN(Cc3cc4c(c(OCC)c3)OC(C)C(=O)N4)CC2)c(C)c1` (stereo not drawn): 200 °C; `COc1ccc(Cn2c(=O)c(=NNc3ccccc3)c(=O)n(CCC(C)C)c3ccccc32)cc1`: 189 to 191 °C. The same measure for `Cc1nnc(-c2ccc3occ(-c4ccc(S(=O)(=O)Cc5ccccc5)cc4)c3c2)o1`: 229 to 230 °C; for `CNc1cc(NC)cc(C(=O)CS(C)(=O)=O)c1`: 144 to 146 °C. `Cc1cc(C)c2c(c1)NC(C)C2` (stereo not drawn): the melting point came to 75 °C.

The compound `O=C1CCCC(=O)C1=CC=Cc1ccccc1` yielded a melting point of 116 to 118 °C.

`NC(=O)c1ccn2c1CSC2c1cccnc1` (single isomer, unassigned; (+)) showed a melting point of 210 °C. The same measure for `O=C(O)C(=O)c1ccc(OCCOc2ccc3ccccc3c2)cc1F`: 155 to 156 °C; for `O=C(NCCc1ccccc1)c1ccccc1-c1ccccc1CN1C(=O)c2ccccc2C1=O`: 156 °C.

`O=C(Cl)C1CCCCC1` came in with a melting point of 41 to 42 °C. `COc1ccc(C(=O)Nc2ccc3ccc(Cl)nc3n2)cc1` came in with a melting point of 208 °C. Next, `N#Cc1ccc(-c2cn(-c3ccc(Br)cc3)cn2)cc1`: 178 to 185 °C.
